This note sets out measurements from patent EP2062893A1, “Fused imidazoles for cancer treatment” (Bayer Schering Pharma AG, priority 2007, dated 2009).

Holding throughout (type): cell-based
For assay [1], the system named is OvCAR3 cells. The assay is described as follows: Cellular proliferation / Cytotoxicity assay (Alamar Blue / Resazurin cell viability). The settings on record: Homo sapiens, OVCAR-3, 48h incubation, read-out: Anti-proliferative / Cytotoxic activity (OvCAR3 cells). As for the experimental part:
Wells containing untreated control cells were filled with 200 µl DMEM (Dulbecco's Modified Eagle Medium) containing 0.5vol% v:v DMSO. The cells are then incubated with the substances for 48h at 37°C in a humidified atmosphere containing 5vol% CO2. To determine the viability of the cells, 20 µl of a Resazurin solution (90mg / I) are added. […] Viabilities are expressed as % values.
For orientation: Alamar Blue is a resazurin reagent that responds to reducing activity.

The subject of assay [2] is phosphorylated GSK3. The assay is described as follows: Cellular pGSK3 assay (phospho-GSK3 Ser9 sandwich ELISA). The settings on record: Homo sapiens; MCF7 cells, 48h incubation, IC50 of pGSK3 inhibition. Put shortly: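 MCF7 cells treated 48 h at 37 °C with compound dilutions from 10 mM DMSO stocks, then lysed. Phospho-GSK3 Ser9 captured in sandwich ELISA, detected with HRP secondary and TMB, absorbance 450 nm; IC50 of pGSK3 inhibition calculated.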

Assay [3] has as its system phosphorylated Akt protein. The assay can be described thus: Cellular PI3K / Akt pathway assay (phospho-Akt Ser473 sandwich ELISA). The settings on record: Homo sapiens; MCF7 cells, ß-Heregulin (20ng/ml) stimulation, 48h incubation. In a few lines:
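MCF7 cells, serum-starved in 0.1% charcoal-treated FCS medium, were treated with compound alongside 20 ng/ml ß-heregulin stimulation (0.5% DMSO controls). Lysates analysed by phospho-Akt1 Ser473 sandwich ELISA (overnight capture at 4°C, Akt1 detection antibody, HRP/TMB), absorbance at 450 nm.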
On the technique in general: An ELISA detects its analyte on a solid surface through an enzyme-linked reagent.

Turning to `c1ccc(-c2c(-c3ccc(CN4CCC(c5cc(-c6ccccn6)n[nH]5)CC4)cc3)nc3ncccn23)cc1` [Example 30, 3-phenyl-2-(4-{[4-(3-pyridin-2-yl-pyrazol-5-yl)piperidin-1-yl]methyl}phenyl)imidazo[1,2-a]pyrimidine], the results for the IC50 in assay [1], in assay [2] and in assay [3] were less than 10 µM, less than 1 µM and 1 to 10 µM, respectively.

`COc1ccc2nc(-c3ccc(CN4CCC(c5n[nH]c(-c6ccccn6)n5)CC4)cc3)c(-c3ccccc3)n2n1` [Example 32, 6-methoxy-3-phenyl-2-(4-{[4-(5-pyridin-2-yl-1,2,4-triazol-3-yl)piperidin-1-yl]methyl}phenyl)imidazo[1,2-b]pyridazine]: the IC50 in assay [1] is less than 10 µM; in assay [2], 1 to 10 µM; in assay [3], less than 1 µM.

Take `N=C(N)c1cccn2c(-c3ccccc3)c(-c3ccc(CN4CCC(c5n[nH]c(-c6ccccn6)n5)CC4)cc3)nc12` [Example 33, 3-phenyl-2-(4-{[4-(5-pyridin-2-yl-1,2,4-triazol-3-yl)piperidin-1-yl]methyl}phenyl)imidazo[1,2-a]pyridine-8-carboximidamide]: the IC50 in assay [1] was greater than 10 µM; in assay [2], greater than 10 µM; in assay [3], 1 to 10 µM.

For the compound `c1ccc(-c2nc(C3CCN(Cc4ccc(-c5nc6ncccn6c5-c5ccsc5)cc4)CC3)n[nH]2)nc1` [Example 34, 2-(4-{[4-(5-pyridin-2-yl-1,2,4-triazol-3-yl)piperidin-1-yl]methyl}phenyl)-3-(3-thienyl)imidazo[1,2-a]pyrimidine], the IC50 in assay [1] was less than 10 µM; in assay [2], less than 1 µM; in assay [3], less than 1 µM.

Turning to `c1ccc(-c2c(-c3ccc(CN4CCC(c5n[nH]c(-c6ccccn6)n5)CC4)cc3)nc3cnccn23)cc1` [Example 37, 3-phenyl-2-(4-{[4-(5-pyridin-2-yl-1,2,4-triazol-3-yl)piperidin-1-yl]methyl}phenyl)imidazo[1,2-a]pyrazine], the IC50 is less than 10 µM in assay [1], 1 to 10 µM in assay [2] and less than 1 µM in assay [3].

In the case of `NC(=O)c1ccn2c(-c3ccccc3)c(-c3ccc(CN4CCC(c5n[nH]c(-c6ccccn6)n5)CC4)cc3)nc2c1` [Example 38, 3-phenyl-2-(4-{[4-(5-pyridin-2-yl-1,2,4-triazol-3-yl)piperidin-1-yl]methyl}phenyl)imidazo[1,2-a]pyridine-7-carboxamide], the IC50 in assay [1] is less than 10 µM; in assay [2], less than 1 µM; in assay [3], less than 1 µM.

With `c1ccc(-c2nc(C3CCN(Cc4ccc(-c5nc6ncccn6c5-c5nccs5)cc4)CC3)n[nH]2)nc1` [Example 39, 2-(4-{[4-(5-pyridin-2-yl-1,2,4-triazol-3-yl)piperidin-1-yl]methyl}phenyl)-3-(1,3-thiazol-2-yl)imidazo[1,2-a]pyrimidine], the values for the IC50 in assay [1], in assay [2] and in assay [3] were less than 10 µM, 1 to 10 µM and less than 1 µM, respectively.
